Results on 88 compounds are retold here after ChEMBL document CHEMBL3098127, “A highly predictive 3D-QSAR model for binding to the voltage-gated sodium channel: design of potent new ligands” (Bioorg Med Chem, 2014).

One assay is filed under the species Rattus norvegicus. To be noted: Cerebral cortex.
With `CCCCCCC1(c2ccccc2)NC(=O)NC1=O` (stereo not drawn), the logIC50 is 1.11. Still for that read-out and setting: the value for `CCOC(=O)C1=C(C)NC(C)=C(C(=O)OC)C1c1cccc([N+](=O)[O-])c1` (stereo not drawn) was 1.56; that for `CCC(O)(C(=O)NCCCc1ccccc1)c1ccccc1` (stereo not drawn) was 1.54. The same measure, in the same setting: the same measure for `CCC(O)(C(=O)NCCc1ccccc1)c1ccccc1` (stereo not drawn): 1.48; for `CCCCCC(O)(C(=O)NCCC(c1ccccc1)c1ccccc1)c1ccccc1` (stereo not drawn): 0.4. The same measure, in the same setting: the value for `CCCCCC(O)(C(=O)NCCCc1ccccc1)c1ccccc1` (stereo not drawn) was 0.72; that for `CCCCCCCCCC(O)(C(N)=O)c1ccccc1` (stereo not drawn) was 0.81. The compound `CCC1(c2ccccc2)NC(=O)N(S(=O)(=O)c2ccc(C)cc2)C1=O` (stereo not drawn) came in with a logIC50 of 1.7.

`O=C1NC(=O)C2(CCCc3ccccc32)N1` (stereo not drawn) came in with a logIC50 of 2.93. Consider `O=C1NC(=O)C2(CCc3ccccc32)N1` (stereo not drawn), for which the logIC50 came out at 3.32. The same measure, in the same setting: the same measure for `O=C(CCCN1CCC(O)(c2ccc(Cl)cc2)CC1)c1ccc(F)cc1`: 0.08.

For the compound `CCCC1(c2ccccc2)NC(=O)N(S(C)(=O)=O)C1=O` (stereo not drawn), the logIC50 amounted to 2.7. In turn, `CCC(OCCCc1ccccc1)(C(=O)CCCCc1ccccc1)c1ccccc1` (stereo not drawn) returned a logIC50 of 0.63. For the compound `CCCCCCCC(O)(C(N)=O)c1ccccc1` (stereo not drawn), the logIC50 is 0.95. On the same count and under the same terms, the value for `OC(CCCN1CCCCC1)(c1ccccc1)c1ccccc1` was 0.53; that for `CCCCCC(O)(C(=O)N1CCN(C(c2ccccc2)c2ccccc2)CC1)c1ccccc1` (stereo not drawn) was 0.68.

On to `CCCCCCCCCC1(c2ccccc2)NC(=O)N(Cc2ccccc2)C1=O` (stereo not drawn), for which the logIC50 came to 0.71. For `CC1CCCCN1CCCOC(=O)c1ccccc1` (stereo not drawn), the logIC50 amounted to 1.11.

`Clc1ccc(C(c2ccc(Cl)cc2)[n+]2ccn(CC(OCc3ccc(Cl)cc3Cl)c3ccc(Cl)cc3Cl)c2)cc1` (stereo not drawn) returned a logIC50 of 0.85. The same measure, in the same setting: the same measure for `CC(Cc1ccccc1)NCCC(c1ccccc1)c1ccccc1` (stereo not drawn): -0.52; for `CCN(CC)CCOC(=O)C1(C2CCCCC2)CCCCC1`: 0.45; for `CCCOc1cc(N)ccc1C(=O)OCCN(CC)CC`: 1.38. For the compound `Cc1cccc(C)c1NC(=O)C(C)N` (stereo not drawn), the logIC50 stood at 2.3. Turning to `CC12C(=O)NC(=O)N1CCc1ccccc12` (stereo not drawn), the logIC50 came out at 2.86.

For `Cc1ccc2c(S(=O)(=O)NCCCCCCN)cccc2c1`, the logIC50 amounted to 1.08.

Take `CCCCCC1(c2ccccc2)OC(=O)NC1=O` (stereo not drawn): the logIC50 was 2.5. On the same count and under the same terms, the same measure for `C[N+](C)(CC(=O)Nc1ccccc1)CC(=O)Nc1ccccc1`: 0.59; for `CCOC(=O)C1=C(C)NC(C)=C(C(=O)OC)C1c1cccc(Cl)c1Cl` (stereo not drawn): 1.57.

As to `COC(=O)[C@H]1[C@@H](OC(=O)c2ccccc2)C[C@@H]2CC[C@H]1N2C`, the logIC50 was found to be 1.69.

Compound `CCCCCC1(c2ccccc2)NC(=O)N(S(C)(=O)=O)C1=O` (stereo not drawn) registered a logIC50 of 2.05. In turn, `CN(C)CCC(c1ccccc1)c1ccccn1` (stereo not drawn) came in with a logIC50 of 1.52. Same read-out and setting: the value for `CCN(CC)CCOC(=O)c1ccc(N)cc1` was 2.04; that for `CC(C)CNCCOC(=O)c1ccc(N)cc1` was 1.74; that for `CCCCN(CCCC)CCCOC(=O)c1ccc(N)cc1` was 0.43. The same measure, in the same setting: the same measure for `COc1cc(C(=O)OCCCN2CCCN(CCCOC(=O)c3cc(OC)c(OC)c(OC)c3)CC2)cc(OC)c1OC`: -0.22.

Compound `CC(O)(C(=O)N1CCN(C(c2ccccc2)c2ccccc2)CC1)c1ccccc1` (stereo not drawn) returned a logIC50 of 0.8. Same read-out and setting: the value for `OCCN1CCN(CCCN2c3ccccc3Sc3ccc(C(F)(F)F)cc32)CC1` was 0.57. On the same count and under the same terms, the same measure for `CCCCC1(c2ccccc2)NC(=O)N(C)C1=O` (stereo not drawn): 2.45; for `CC(C)COCC(CN(Cc1ccccc1)c1ccccc1)N1CCCC1` (stereo not drawn): -0.08.

Take `CCCCOc1cc(C(=O)OCCN(CC)CC)ccc1N`: the logIC50 is 0.46.

As for `CCCCCCCCCC1(c2ccccc2)NC(=O)N(S(C)(=O)=O)C1=O` (stereo not drawn), the logIC50 stood at 1.1.

Compound `O=C1NC(=O)C2(CCCCCc3ccccc32)N1` (stereo not drawn) showed a logIC50 of 2.4. In the case of `Cc1cccc(C)c1NC(=O)C1CCCCN1C` (stereo not drawn), the logIC50 was 2.28. The same measure, in the same setting: the value for `CCCNC(C)(C)COC(=O)c1ccccc1` was 0.88; that for `CCCCCC1(c2ccccc2)NC(=O)N(Cc2ccccc2)C1=O` (stereo not drawn) was 0.84; that for `CCCCc1cc2ccccc2c(OCCN(C)C)n1` was 0.53. Compound `CCOc1ccc(/N=C(\C)Nc2ccc(OCC)cc2)cc1` registered a logIC50 of 0.23.

`CCCCCCCC1(c2ccccc2)OC(=O)NC1=O` (stereo not drawn) showed a logIC50 of 1.48. Take `CCCC1(c2ccccc2)NC(=O)NC1=O` (stereo not drawn): the logIC50 was 2.21. The same measure, in the same setting: the same measure for `CCCC1(c2ccccc2)OC(=O)NC1=O` (stereo not drawn): 2.65; for `CCN1C(=O)NC(=O)C1(C)c1ccccc1` (stereo not drawn): 2.4.

Regarding `O=C1NC(=O)C(c2ccccc2)(c2ccccc2)N1`, the logIC50 came out at 1.6. Turning to `CCN(CC)CC(=O)Nc1c(C)cccc1C`, the logIC50 is 1.68.

In turn, `CCCCCCCC1(c2ccccc2)NC(=O)NC1=O` (stereo not drawn) yielded a logIC50 of 0.7.

As for `COc1cc2nc(N3CCN(C(=O)c4ccco4)CC3)nc(N)c2cc1OC`, the logIC50 is 1.33. Still for that read-out and setting: the value for `CCCCCC1(c2ccccc2)NC(=O)N(CN2CCN(C(c3ccccc3)c3ccccc3)CC2)C1=O` (stereo not drawn) was 0.11.

Regarding `COc1ccc(CCN(C)CCCC(C#N)(c2cc(OC)c(OC)c(OC)c2)C(C)C)cc1OC` (stereo not drawn), the logIC50 amounted to 0.56. Still for that read-out and setting: the same measure for `CN(C)C(=O)C(CCN1CCC(O)(c2ccc(Cl)c(C(F)(F)F)c2)CC1)(c1ccccc1)c1ccccc1`: 0.55; for `COC(=O)C1=C(C)NC(C)=C(C(=O)OCC(C)C)C1c1ccccc1[N+](=O)[O-]` (stereo not drawn): 1.41. As for `CCCCOc1ccc(OCCCN2CCOCC2)cc1`, the logIC50 was 1. The same measure, in the same setting: the value for `CCCCCCCCCC1(c2ccccc2)NC(=O)NC1=O` (stereo not drawn) was 0.7. With `CCOC(=O)c1ccc(N)cc1`, the logIC50 came out at 2.86. Same read-out and setting: the same measure for `CCCCCC1(c2ccccc2)NC(=O)NC1=O` (stereo not drawn): 1.59; for `CCCCCCCC1(c2ccccc2)NC(=O)N(S(C)(=O)=O)C1=O` (stereo not drawn): 1.11; for `CCCNC(C)C(=O)Nc1ccccc1C` (stereo not drawn): 1.73. Still for that read-out and setting: the value for `CN(C)C(=O)C(CCN1CCC(O)(c2ccc(Cl)cc2)CC1)(c1ccccc1)c1ccccc1` was -0.56; that for `O=C1NC(=O)C2(CCCCc3ccccc32)N1` (stereo not drawn) was 2.4; that for `CCC(O)(C(=O)NCCC(c1ccccc1)c1ccccc1)c1ccccc1` (stereo not drawn) was 0.91. Still for that read-out and setting: the value for `CCC1(c2ccccc2)NC(=O)N(CN2CCN(C(c3ccccc3)c3ccccc3)CC2)C1=O` (stereo not drawn) was 0.52. Turning to `CCCCOc1cc(C(=O)NCCN(CC)CC)c2ccccc2n1`, the logIC50 was 0.78. Still for that read-out and setting: the value for `CCCCCC(O)(C(=O)NCCc1ccccc1)c1ccccc1` (stereo not drawn) was 0.7. The compound `NCCCCCCNS(=O)(=O)c1cccc2ccccc12` gave a logIC50 of 1.34.

Test system in another assay: not listed separately
Nature of the assay: Displacement of [3H]BTX-B from neuronal voltage-gated sodium channel in rat cerebral cortex synaptoneurosomes after 60 mins by scintillation counting. Type of assay: tissue-based.
Settings: not given
For orientation: In a radioligand displacement assay an active substance lowers the binding of a labelled ligand.
Turning to `c1ccc(C(CCCCCCNC(c2ccccc2)c2ccccc2)c2ccccc2)cc1`, the IC50 – broadly, the concentration at which inhibition is half-maximal – was 560 nM. Still for that read-out and setting: the value for `c1ccc(CCCNCCc2ccccc2)cc1` was 340 nM; that for `c1ccc(C(CCCCCNC(c2ccccc2)c2ccccc2)c2ccccc2)cc1` was 345 nM; that for `Fc1ccc(C(CCCNCCc2ccccc2)c2ccc(F)cc2)cc1` was 1230 nM. `c1ccc(C(CCCCNC(c2ccccc2)c2ccccc2)c2ccccc2)cc1` yielded an IC50 of 562 nM. In the case of `Fc1ccc(C(CCCNCCCc2ccccc2)c2ccc(F)cc2)cc1`, the IC50 stood at 229 nM. For the compound `c1ccc(CCCNCCCc2ccccc2)cc1`, the IC50 was found to be 252 nM.

`c1ccc(C(CCNC(c2ccccc2)c2ccccc2)c2ccccc2)cc1` had an IC50 of 760 nM. As for `c1ccc(C(CCCNC(c2ccccc2)c2ccccc2)c2ccccc2)cc1`, the IC50 turned out to be 1330 nM. The same measure, in the same setting: the value for `CC(C)(C)c1ccc(C(=O)CCCN2CCN(C(c3ccccc3)c3ccccc3)CC2)cc1` was 128 nM.

Consider `Cc1ccc(C(=O)CCCN2CCN(C(c3ccccc3)c3ccccc3)CC2)cc1C`, for which the IC50 is 156 nM. The IC50 values of the last two compounds are within 1.5-fold of each other. Still for that read-out and setting: the value for `c1ccc(CCCN2CCN(C(c3ccccc3)c3ccccc3)CC2)cc1` was 192 nM; that for `O=C(NCCN1CCN(C(c2ccccc2)c2ccccc2)CC1)c1ccccc1` was 283 nM. The compound `c1ccc(CCN2CCN(C(c3ccccc3)c3ccccc3)CC2)cc1` showed an IC50 of 257 nM. This IC50 and that of the compound before are within 1.5-fold of each other. Same read-out and setting: the same measure for `c1ccc(C(CNC(c2ccccc2)c2ccccc2)c2ccccc2)cc1`: 3160 nM; for `Fc1ccc(C(CCCN2CCN(C(c3ccccc3)c3ccccc3)CC2)c2ccc(F)cc2)cc1`: 119 nM.
